In patent US11873298B2, “Compounds and uses thereof” (JANSSEN PHARMACEUTICA NV, priority 2017, dated 2024):

Legend:
SCD5 = target: T1, SCD5 (Homo sapiens, UniProt Q86SK9); assay: Growth inhibition of humanized yeast strain expressing SCD5 as sole desaturase; format: cell-based
T1 construct: host or cells: S. cerevisiae ole1Δ strain (W303 pdr1Δ pdr3Δ background), plasmid pRS316 with TDH3 promoter and CYC1 terminator
T1 sequence (Q86SK9 1-330): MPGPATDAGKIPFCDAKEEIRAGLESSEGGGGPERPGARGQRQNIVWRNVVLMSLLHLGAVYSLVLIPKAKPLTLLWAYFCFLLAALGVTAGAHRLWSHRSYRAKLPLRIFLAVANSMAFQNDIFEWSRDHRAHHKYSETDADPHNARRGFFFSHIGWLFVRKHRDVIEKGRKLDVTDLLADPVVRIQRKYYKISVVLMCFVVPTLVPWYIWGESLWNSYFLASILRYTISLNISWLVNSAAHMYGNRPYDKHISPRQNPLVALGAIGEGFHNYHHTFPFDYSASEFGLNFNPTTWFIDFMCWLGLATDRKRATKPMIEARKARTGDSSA
Method in brief: (§1)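 OD600 growth read-out. ole1Δ yeast, pdr1Δ pdr3Δ, with Ole1/SCD1/SCD5 on a plasmid; SX-Ura media throughout; 2× cell density 0.02 in CSM-Galactose; DMSO compound dilutions; humidified 30° C.; Ole1 stopped at 24 h, SCD1/SCD5 at 40 h.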

SCD1 = target: T2, SCD1 (Homo sapiens, UniProt O00767); assay: Growth inhibition of humanized yeast strain expressing SCD1 as sole desaturase; format: cell-based
T2 construct: host or cells: S. cerevisiae ole1Δ strain (W303 pdr1Δ pdr3Δ background), plasmid pRS316 with TDH3 promoter and CYC1 terminator
T2 sequence (O00767 1-359): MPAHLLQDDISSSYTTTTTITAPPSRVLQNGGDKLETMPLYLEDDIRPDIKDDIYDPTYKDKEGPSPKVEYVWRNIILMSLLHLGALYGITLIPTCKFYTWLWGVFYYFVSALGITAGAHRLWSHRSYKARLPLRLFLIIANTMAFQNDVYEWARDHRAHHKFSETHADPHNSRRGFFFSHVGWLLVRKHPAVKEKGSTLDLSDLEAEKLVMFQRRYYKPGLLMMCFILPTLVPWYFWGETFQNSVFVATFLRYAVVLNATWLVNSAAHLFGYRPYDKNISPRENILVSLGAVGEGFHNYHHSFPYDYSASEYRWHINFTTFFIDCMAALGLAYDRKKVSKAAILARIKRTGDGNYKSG
Method in brief: as §1

[1] = growth inhibition of humanized yeast strain expressing human SCD5
[2] = growth inhibition of humanized yeast strain expressing human SCD1
[3] = humanized yeast strain expressing SCD5
[4] = humanized yeast strain expressing SCD1

## COCC(C)(C)n1ncc2ccc(-c3noc(N4CCN(C(=O)OC(C)(C)C)CC4)n3)cc21 [Compound 788]
SCD5; humanized yeast strain, 40 h
  IC50: 6.22 µM
SCD1; humanized yeast strain, 40 h
  IC50: > 45 µM

## CC(C)(C)OC(=O)N1CCC(c2nc(-c3ccc4cnc(Br)n4c3)no2)CC1 [Compound 865]
SCD5; humanized yeast strain, 40 h
  IC50: 0.01 µM
SCD1; humanized yeast strain, 40 h
  IC50: > 45 µM

## CC(C)n1ncc2ccc(-c3noc(C4CCN(S(=O)(=O)C5CCCCC5)CC4)n3)cc21 [Compound 673]
SCD5; [1]
  IC50: 33.8 µM
SCD1; [2]
  IC50: > 45 µM

## CC(C)n1ncc2ccc(-c3noc(C4CCN(C(=O)C56CC(C5)C6)CC4)n3)cc21 [Compound 705]
SCD5; [1]
  IC50: 0.174 µM
SCD1; [2]
  IC50: 14.4 µM

## O[C@H]1C[C@@H](n2ncc3ccc(-c4nc(N5CCn6c(Cl)cnc6C5)no4)cc32)C1 [Compound 958]
SCD5; humanized yeast strain, 40 h
  IC50: 34.5 µM
SCD1; humanized yeast strain, 40 h
  IC50: > 45 µM

## CCC(=O)N1CCC(c2cc(-c3cc4c(cn3)cnn4C3COC3)no2)CC1 [Compound 1147]
SCD5; humanized yeast strain, 40 h
  IC50: 5.46 µM
SCD1; humanized yeast strain, 40 h
  IC50: > 45 µM

## CNC(=O)c1nc(-c2ccc3c(C)nn(C)c3c2)no1 [Compound 745]
SCD5; [1]
  IC50: > 45 µM
SCD1; [2]
  IC50: > 45 µM

## CC(C)(C)OC(=O)N1CCC(c2nc(-c3ccc4cnn([C@H]5C[C@@H](O)C5)c4c3)no2)CC1 [Compound 823]
SCD5; humanized yeast strain, 40 h
  IC50: 0.119 µM
SCD1; humanized yeast strain, 40 h
  IC50: > 45 µM

## O=C(OC1CC1)N1CCC(c2noc(-c3ccnc(C4CCOC4)c3)n2)CC1 (stereo not shown) [Compound 1098]
SCD5; humanized yeast strain, 40 h
  IC50: 0.062 µM
SCD1; humanized yeast strain, 40 h
  IC50: > 45 µM

## CC(C)n1ncc2ccc(-c3noc(N4CCn5ccnc5C4)n3)cc21 [Compound 804]
SCD5; humanized yeast strain, 40 h
  IC50: > 45 µM
SCD1; humanized yeast strain, 40 h
  IC50: > 45 µM

## CC(C)n1ncc2ccc(-c3nc(C4CN(C(=O)CC(C)(C)C)C4)no3)cc21 [Compound 606]
SCD5; [1]
  IC50: 0.737 µM
SCD1; [2]
  IC50: > 45 µM

## O=C(c1ccccc1F)N1CCN(c2noc(-c3ccc4cnn(C5COC5)c4c3)n2)CC1 [Compound 725]
SCD5; [1]
  IC50: 0.011 µM
SCD1; [2]
  IC50: 5.99 µM

## O=C(C1CC1)N1CCN(c2noc(-c3ccnc(Cl)c3)n2)CC1 [Compound 1118]
SCD5; humanized yeast strain, 40 h
  IC50: > 45 µM
SCD1; humanized yeast strain, 40 h
  IC50: > 45 µM

## CC(C)N1C(=O)Cc2ccc(-c3noc(C4CCN(C(=O)CC5(C)CC5)CC4)n3)cc21 [Compound 626]
SCD5; [1]
  IC50: 2.75 µM
SCD1; [2]
  IC50: > 45 µM

## CC(C)C(=O)N1CCC(c2noc(-c3ccc4cnn(C5COC5)c4c3)n2)CC1 [Compound 927]
SCD5; humanized yeast strain, 40 h
  IC50: 0.14 µM
SCD1; humanized yeast strain, 40 h
  IC50: > 45 µM

## Cc1nn(C)c2cc(-c3noc(C4CCN(Cc5ccccc5)C(=O)C4)n3)ccc12 (stereo not shown) [Compound 354]
SCD5; [3]
  IC50: > 45 µM
  SCD5 % Max Inhibition: 4.29%
SCD1; [4]
  IC50: > 45 µM
  SCD1 % Max Inhibition: 30.16%

## CC(C)n1ncc2ccc(-c3noc(C4CCN(C(=O)CNC(=O)c5cccc(F)c5)CC4(F)F)n3)cc21 (stereo not shown) [Compound 551]
SCD5; [3]
  IC50: > 45 µM
SCD1; [4]
  IC50: > 45 µM

## CO[C@H]1C[C@H](n2ncc3ccc(-c4noc(C5CCN(C(=O)OC(C)(C)C)CC5)n4)cc32)C1 [Compound 859]
SCD5; humanized yeast strain, 40 h
  IC50: > 4 µM
SCD1; humanized yeast strain, 40 h
  IC50: > 45 µM

## COC(=O)N1CC2(CC(c3noc(-c4ccc5cnn(C6COC6)c5c4)n3)C2)C1 [Compound 1032]
SCD5; humanized yeast strain, 40 h
  IC50: 4.1 µM
SCD1; humanized yeast strain, 40 h
  IC50: > 45 µM

## CC1(OC(=O)N2CCC(c3nnc(-c4ccc5cnn(C6COC6)c5c4)o3)CC2)CC1 [Compound 980]
SCD5; humanized yeast strain, 40 h
  IC50: 0.877 µM
SCD1; humanized yeast strain, 40 h
  IC50: > 45 µM

## COC(=O)N1CCN(c2noc(-c3ccc4cnn(C5COC5)c4c3)n2)CC(F)(F)C1 [Compound 1034]
SCD5; humanized yeast strain, 40 h
  IC50: 0.639 µM
SCD1; humanized yeast strain, 40 h
  IC50: > 45 µM

## COC(=O)N1CCC(c2noc(-c3ccc4cnn(C5CCC(F)(F)C5)c4c3)n2)CC1 (stereo not shown) [Compound 1078]
SCD5; humanized yeast strain, 40 h
  IC50: 0.033 µM
SCD1; humanized yeast strain, 40 h
  IC50: > 45 µM

## CC(C)n1ncc2ccc(-c3noc(C4CCN(C(=O)CN(C)C)CC4)n3)cc21 [Compound 686]
SCD5; [1]
  IC50: > 45 µM
SCD1; [2]
  IC50: > 45 µM

## CC(C)n1ncc2ccc(-c3noc(C4CCN(C(=O)OC5(C)CC5)CC4(F)F)n3)cc21 (stereo not shown) [Compound 584]
SCD5; [3]
  IC50: 5.34 µM
SCD1; [4]
  IC50: > 45 µM

## CC(C)n1ncc2ccc(-c3noc(N4CCN(C(=O)OC5CC5)CC4)n3)cc21 [Compound 689]
SCD5; [1]
  IC50: 0.657 µM
SCD1; [2]
  IC50: > 45 µM

## COC1(C(=O)N2CCC(c3nc(-c4ccc5cnn(C(C)C)c5c4)no3)CC2)CC1 [Compound 797]
SCD5; humanized yeast strain, 40 h
  IC50: 0.133 µM
SCD1; humanized yeast strain, 40 h
  IC50: > 45 µM

## CC1(OC(=O)N2CCN(c3noc(-c4ccc5cnn(C6COC6)c5c4)n3)CC2)CC1 [Compound 735]
SCD5; [1]
  IC50: 0.01 µM
SCD1; [2]
  IC50: 3.99 µM

## CN1CC2CN(c3nc(-c4ccc5cnn(C6COC6)c5c4)no3)CCN2C1=O (stereo not shown) [Compound 1142]
SCD5; humanized yeast strain, 40 h
  IC50: > 45 µM
SCD1; humanized yeast strain, 40 h
  IC50: > 45 µM
